MIC and antibacterial activity data for 2 compounds are collected here from patent US5444057A, “Carbapenem-antibiotic compounds” (Zeneca Limited, priority 1992, dated 1995).

SMILES strings stand for the structures. Converted amounts (≈) assume the structure as drawn.

The subject of one test is S. aureus Oxford. Briefly: MIC by agar dilution, S. aureus Oxford. The settings on record: Staphylococcus aureus, Diagnostic Sensitivity Test, inoculum 10^4 CFU/spot. The test is classed as cell-based. A general note: In agar dilution the substance is mixed into plates at graded concentrations.
For another test, the system named is E. coli DCO. Nature of the test: MIC by agar dilution, E. coli DCO. The test is classed as cell-based. Particulars: Escherichia coli, Diagnostic Sensitivity Test, inoculum 10^4 CFU/spot.
The next test relates to P. morganii I + 001. Nature of the test: MIC by agar dilution, P. morganii I + 001. It is filed as cell-based. Particulars: Morganella morganii, Diagnostic Sensitivity Test, inoculum 10^4 CFU/spot.
In test [1] the test system is Enterobacter cloacae P99-. Nature of the test: MIC by agar dilution, Enterobacter cloacae P99-. The test is classed as cell-based.
Description: (§1) The antibacterial activity is described in terms of the minimum inhibitory concentration (MIC) determined by the agar-dilution technique with an inoculum size of 10^4 CFU/spot.
The next test concerns B. fragilis AMP S. Nature of the test: MIC by agar dilution, B. fragilis AMP S. The settings on record: Bacteroides fragilis, Diagnostic Sensitivity Test, inoculum 10^4 CFU/spot. The test is classed as cell-based.
The next test concerns bacteria. Particulars: cited from earlier work.

The term MIC denotes the lowest concentration found to suppress growth.

Description for B. fragilis AMP S: as §1
Description for E. coli DCO: as §1
Description for P. morganii I + 001: as §1
Description for S. aureus Oxford: as §1

As for `C[C@@H](O)[C@H]1C(=O)N2C(C(=O)O)=C(S[C@@H]3CN[C@H](C(=O)Nc4ccc(C(=O)O)cn4)C3)[C@H](C)[C@H]12` [Example 4, (1R,5R,6S,8S,2'S,4'S)-2-(2-(5-Carboxy-2-pyridylcarbamoyl)pyrrolidin-4-ylthio)-6-(1-hydroxyethyl)-1-methylcarbapenem-3-carboxylic acid], the MIC stood at 0.13 µg/mL (≈ 0.273 µM) in the test with S. aureus Oxford; 0.02 µg/mL (≈ 0.042 µM) in the test on E. coli DCO; 0.02 µg/mL with P. morganii I + 001; 0.02 µg/mL (≈ 0.042 µM) in test [1]; 0.25 µg/mL (≈ 0.525 µM) in the test with B. fragilis AMP S.
With `C[C@@H](O)[C@H]1C(=O)N2C(C(=O)O)=C(SCCN=CN)C[C@H]12` [imipenem, N-formimidoyl thienamycin], the antibacterial activity entry in the test on bacteria is recorded as “broad spectrum of antibacterial activity”.
